Seven molecules from PubChem BioAssay (NCI) can be followed below.

Structures are written as SMILES.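 Interpolation was linear, between the two tested concentrations surrounding the appropriate level; five concentrations were tested over 48 hours in 96-well plates. TGI denotes the concentration required for complete inhibition of growth.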 A value given as a limit tells only on which side of the number the result lay.

Common to all, as to assay: DTP human tumour cell line panel, 48 h
For assay [1], the system named is EKVX NSCLC.
Assay [2] deals with HL-60(TB) leukemia.
In assay [3] the test system is SNB-75 CNS.
Assay [4] relates to SF-268 CNS.
For assay [5], the system named is PC-3 prostate.
The subject of assay [6] is MCF7 breast.
Assay [7] deals with RPMI-8226 leukemia.
The subject of assay [8] is MDA-N.
The test system of assay [9] is SK-MEL-2 melanoma.
In assay [10] the test system is 786-0 renal.
In assay [11] the test system is LOX IMVI melanoma.
Assay [12] has as its system ACHN renal.
Assay [13] relates to SK-MEL-28 melanoma.
The subject of assay [14] is SK-OV-3 ovarian.
Assay [15] concerns HOP-62 NSCLC.
Assay [16] relates to SF-539 CNS.
In assay [17] the test system is TK-10 renal.
Assay [18] relates to CCRF-CEM leukemia.
The subject of assay [19] is NCI-H226 lung.
Assay [20] has as its system COLO 205 colon.

`Cn1c(=O)c2c(=O)cc(N)[nH]c2n(C)c1=O`: the TGI in [1], in assay [2], in [3], in assay [4], in assay [5] and in [6] was over 100 µM in each case. Further, the TGI in [7], in [8], in assay [9], in [10], in [11] and in assay [12] was over 100 µM in each case. Also, the TGI in [13], in assay [14], in [15], in [16], in assay [17] and in assay [18] was over 100 µM each time. Moreover, the TGI in [19] and in [20] was over 100 µM throughout.
Turning to `CN(C)NC1=NS(=O)(=O)c2cc3c(=O)n(C)[nH]c3cc2S1`, the TGI in assay [1], in [2], in [3], in assay [4], in assay [5] and in [6] was over 10 µM each time. In addition, the concentration for total growth inhibition (TGI) in assay [7], in [8], in assay [9], in assay [10], in assay [11] and in [12] was over 10 µM throughout. Moreover, the TGI in assay [13], in [14], in assay [15], in assay [16], in [17] and in [18] was over 10 µM throughout. Further, the total growth inhibition concentration (TGI) in [19] and in [20] was over 10 µM each time.
`O=C(NC(OCc1ccccc1)(C(F)(F)F)C(F)(F)F)OCc1ccccc1`: the TGI in [1] amounted to 28.7 µM; in [2] it was 40.8 µM; in [3], 29 µM; in [4] it was 32.2 µM; in assay [5], 26.7 µM; in assay [6] it was 30.1 µM. Moreover, the TGI was determined as 41.1 µM in assay [7]; 28.5 µM in [8]; 28.7 µM in assay [9]; 30.1 µM in assay [10]; 27.6 µM in assay [11]; 29.2 µM in assay [12]. Moreover, the total growth inhibition concentration (TGI) turned out to be 31.5 µM in assay [13]; 31.3 µM in [14]; 28.4 µM in assay [15]; 31.1 µM in [16]; 20.9 µM in [17]; 34.9 µM in [18]. Also, the TGI in assay [19] was determined as 27.7 µM; in assay [20], 31.6 µM.
With `c1ccc2c(c1)-c1ccccc1C2NC1=NCCO1`, the TGI was over 100 µM in assay [1]; 48.5 µM in assay [2]; 49.5 µM in assay [3]; over 100 µM in assay [4]; 95.3 µM in [5]; 60.8 µM in [6]. Moreover, the concentration for total growth inhibition (TGI) in assay [7] was 91.9 µM; in assay [8], 24 µM; in [9], 39.5 µM; in assay [10] it was 84.5 µM; in assay [11] it was 48.3 µM; in [12] it was over 100 µM. The TGI was 55.7 µM in assay [13]; over 100 µM in assay [14]; 46.5 µM in [15]; 49.6 µM in assay [16]; 83.6 µM in assay [17]; over 100 µM in assay [18]. The TGI in assay [19] was found to be 56.3 µM; in assay [20], 41 µM.
Turning to `CCCCCCCCCCCCc1ccsc1-c1ccc(-c2ccc(-c3sccc3CCCCCCCCCCCC)s2)s1`, the TGI in assay [1], in [2], in [3], in assay [4], in assay [5] and in assay [6] was over 100 µM in each case. Besides, the TGI in assay [7], in assay [8], in assay [9], in assay [10], in assay [11] and in assay [12] was over 100 µM each time. Further, the TGI in [13], in [14], in [15], in [16], in assay [17] and in assay [18] was over 100 µM each time. Also, the TGI in [19] and in assay [20] was over 100 µM each time.
Consider `C=CCOCn1cnc2c(=O)[nH]c(N)nc21`, for which the total growth inhibition concentration (TGI) in [1], in assay [2], in [3], in assay [4], in assay [5] and in [6] was over 100 µM in each case. In addition, the TGI in assay [7], in assay [8], in assay [9], in [10], in assay [11] and in [12] was over 100 µM in each case. In addition, the TGI in [13], in [14], in assay [15], in [16], in assay [17] and in assay [18] was over 100 µM throughout. Moreover, the TGI in assay [19] and in assay [20] was over 100 µM in each case.
For the molecule `CCCCCCCCCCCCCCCC(=O)OC1C(O)C(O)C(O)C(O)C12CO2` (stereo not given), the total growth inhibition concentration (TGI) is 61.4 µM in assay [1]; 45.7 µM in assay [2]; 93.2 µM in assay [3]; over 100 µM in assay [4]; 89.7 µM in assay [5]; over 100 µM in [6]. Moreover, the total growth inhibition concentration (TGI) in assay [7] is over 100 µM; in assay [8] it was over 100 µM; in [9] it was over 100 µM; in [10], 41.9 µM; in [11] it was 53.2 µM; in assay [12] it was over 100 µM. The TGI was over 100 µM in assay [13]; over 100 µM in assay [14]; over 100 µM in assay [15]; 63.9 µM in assay [16]; over 100 µM in assay [17]; 41.1 µM in [18]. For the same molecule, the TGI in [19] and in assay [20] was over 100 µM each time.

What is called TGI is the concentration giving total growth inhibition. High values mean less potent growth arrest, low ones more potent growth arrest.
